Columns and labels:
HeLa cells = test: Terminal restriction fragment (TRF) telomere length assay; assay type: cell-based, human; conditions: up to 40 population doublings, FIGS. 6A-B
Method: FIGS. 6A-6C show Tnks inhibitors but not a Porcn inhibitor induce telomeric shortening. […] HeLa cells were incubated with IWR-1, IWR-8, or IWP-6 at various concentrations for the indicated number of population doublings (PD) and telomere length measured by terminal restriction fragment (TRF) analysis. Density of radioprobe hybridization relative to the vertical distance from the largest molecular weight marker was quantified using ImageJ and the point of highest density in each lane marked by a dark line. Position of control telomere restricted fragment signal is indicated with dotted line. Lanes with insufficient strength in labeling or that were disrupted with blemishes during experimental processing were not quantified. […] The same assay described in “A” was used to test the Porcn inhibitor IWP-2. (FIG. 6C) Model of Tnks-dependent regulation of Wnt/β-catenin transcriptional and telomere length maintenance in human cells. Excessive Terf1 binding to DNA in the absence of Tnks-mediated Terf1 parsylation results in replication fork stalling in telomeres (Munoz, et al., 2009; Ohki and Ishikawa, 2004) which then presumably results in telomere shortening. […]
1×10^6 cells were collected and washed with PBS. […] Gels were exposed to a Phosphorlmager screen overnight and analyzed using a Typhoon Phosphorlmager scanner system (Molecular Dynamics). […]

zebrafish = test: Zebrafish caudal fin regeneration after chemical removal; assay type: in vivo; conditions: resected caudal fins, water containing compound for 7 d, then removal
From the text: Achieving transient repression of pathological Wnt response without incurring permanent damage to normal stem cell function is a key anticancer therapeutic goal.

[1] = molecular target: T1, catalytic domain of human Tnks1 (Homo sapiens, UniProt O95271); test: Crystal structures of IWR compound/Tnks1 complexes, binding pocket; conditions: crystal structure, FIGS. 3A-3C
T1 construct: The catalytic domain of human Tnks1 (residues 1105-1313) was expressed; His6 (with TEV site) (N, cleaved yes); made in house; host or cells: E. coli BL21 (DE3)
T1 sequence (O95271 1105-1313): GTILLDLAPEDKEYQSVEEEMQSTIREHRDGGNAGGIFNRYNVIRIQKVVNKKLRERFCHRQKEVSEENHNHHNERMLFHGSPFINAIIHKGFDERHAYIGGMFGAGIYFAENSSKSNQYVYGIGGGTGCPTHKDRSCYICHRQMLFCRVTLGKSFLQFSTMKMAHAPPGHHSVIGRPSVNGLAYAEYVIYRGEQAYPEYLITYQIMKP
Method: Protein Expression and Purification.
The catalytic domain of human Tnks1 (residues 1105-1313) was expressed by using a modified pET28 vector, which encodes an N-terminal His6-tag and a cleavage site for the Tobacco Etch Virus (TEV) protease. Protein expression was induced by 0.1 mM IPTG at 15° C. when the culture of the bacteria strain BL21 (DE3) transformed with the plasmid reached O.D. of 1.5. Cells were harvested 12 hrs after induction and lysed by Frenchpressing. The lysate was cleared by centrifugation at 15000 rpm for 1 hr. The protein was purified by Ni-NTA-based affinity chromatography and ion exchange chromatography. The N-terminal His6-tag was removed by overnight TEV protease treatment at 4° C. Purified protein was concentrated and stored in −80° C.
Crystallization, Data Collection and Structure Determination.
The purified Tnks1 catalytic domain at 5 mg/mL (0.22 mM) mixed with IWR-1 (the exo-form), IWR-3 and IWR-8 at 0.25 mM were subjected to crystallization trials by using sitting-drop 96-well plates. Following initial hits of crystallization, large crystals were obtained by hanging-drop vapor diffusion in conditions optimized based on the initial conditions. Crystals of the Tnks1/IWR-1 complex were grown at 20° C. in 0.1 M Bis-Tris (pH 5.3), 0.15 M MgCl2 and 20-23% PEG3350. […]

TNKS1 = TNKS1 (Homo sapiens, UniProt O95271); test: PARP profiling, parsylation of immobilized histone; assay type: biochemical; conditions: IWR compounds 10 μM
Sequence of TNKS1 (O95271 whole entry): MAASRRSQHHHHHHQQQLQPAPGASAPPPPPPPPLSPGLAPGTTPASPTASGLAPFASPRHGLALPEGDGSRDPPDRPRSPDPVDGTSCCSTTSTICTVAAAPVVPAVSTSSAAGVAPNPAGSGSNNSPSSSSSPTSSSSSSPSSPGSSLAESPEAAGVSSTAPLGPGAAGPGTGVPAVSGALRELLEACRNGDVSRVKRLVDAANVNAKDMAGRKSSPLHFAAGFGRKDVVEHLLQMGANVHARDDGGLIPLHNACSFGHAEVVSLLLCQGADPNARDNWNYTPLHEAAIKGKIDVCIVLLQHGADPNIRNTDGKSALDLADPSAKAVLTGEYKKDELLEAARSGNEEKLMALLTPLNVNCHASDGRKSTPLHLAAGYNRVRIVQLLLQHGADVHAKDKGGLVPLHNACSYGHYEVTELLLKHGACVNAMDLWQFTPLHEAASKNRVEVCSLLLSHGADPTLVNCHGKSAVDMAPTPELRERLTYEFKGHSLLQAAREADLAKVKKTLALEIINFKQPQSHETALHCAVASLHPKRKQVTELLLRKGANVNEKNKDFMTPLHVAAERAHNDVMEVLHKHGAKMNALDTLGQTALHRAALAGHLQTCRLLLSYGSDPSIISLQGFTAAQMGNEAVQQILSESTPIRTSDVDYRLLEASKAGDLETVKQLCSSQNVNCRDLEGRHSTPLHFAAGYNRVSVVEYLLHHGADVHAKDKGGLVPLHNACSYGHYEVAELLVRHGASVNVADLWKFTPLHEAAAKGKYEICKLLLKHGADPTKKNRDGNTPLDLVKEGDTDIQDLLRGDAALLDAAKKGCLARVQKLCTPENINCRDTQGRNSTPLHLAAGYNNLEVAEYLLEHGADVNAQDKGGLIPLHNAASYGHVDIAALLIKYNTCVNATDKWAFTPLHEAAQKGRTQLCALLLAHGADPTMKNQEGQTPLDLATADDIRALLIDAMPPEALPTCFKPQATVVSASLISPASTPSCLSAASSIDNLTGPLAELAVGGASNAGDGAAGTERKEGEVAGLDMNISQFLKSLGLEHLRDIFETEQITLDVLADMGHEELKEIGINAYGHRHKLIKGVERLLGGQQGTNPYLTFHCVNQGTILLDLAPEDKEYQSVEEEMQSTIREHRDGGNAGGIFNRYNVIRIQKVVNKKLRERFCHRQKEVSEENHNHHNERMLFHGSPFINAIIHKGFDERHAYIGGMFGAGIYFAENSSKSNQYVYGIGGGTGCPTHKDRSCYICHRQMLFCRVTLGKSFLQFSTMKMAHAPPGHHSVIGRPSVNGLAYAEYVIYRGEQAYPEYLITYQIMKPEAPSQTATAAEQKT
Method: (§1) Performed by BPS Bioscience Inc., San Diego by following the BPS PARP or TNKS assay kit protocols. The enzymatic reactions were conducted in duplicate at room temperature for 1 hr in a 96 well plate coated with histone substrate. […] of reaction buffer (Tris.HCl, pH 8.0) contains NAD^+, biotinylated NAD^+, activated DNA, recombinant PARP enzyme and 10 μM of the test compound. […] After enzymatic reactions, 50 μL of Streptavidin-horseradish peroxidase was added to each well and the plate was incubated at room temperature for an additional 30 min. 100 μL of developer reagents were added to wells and luminescence was measured using a BioTek Synergy™ 2 microplate reader.

TNKS2 = TNKS2 (Homo sapiens, UniProt Q9H2K2); test: PARP profiling, parsylation of immobilized histone; assay type: biochemical; conditions: IWR compounds 10 μM
Sequence of TNKS2 (Q9H2K2 whole entry): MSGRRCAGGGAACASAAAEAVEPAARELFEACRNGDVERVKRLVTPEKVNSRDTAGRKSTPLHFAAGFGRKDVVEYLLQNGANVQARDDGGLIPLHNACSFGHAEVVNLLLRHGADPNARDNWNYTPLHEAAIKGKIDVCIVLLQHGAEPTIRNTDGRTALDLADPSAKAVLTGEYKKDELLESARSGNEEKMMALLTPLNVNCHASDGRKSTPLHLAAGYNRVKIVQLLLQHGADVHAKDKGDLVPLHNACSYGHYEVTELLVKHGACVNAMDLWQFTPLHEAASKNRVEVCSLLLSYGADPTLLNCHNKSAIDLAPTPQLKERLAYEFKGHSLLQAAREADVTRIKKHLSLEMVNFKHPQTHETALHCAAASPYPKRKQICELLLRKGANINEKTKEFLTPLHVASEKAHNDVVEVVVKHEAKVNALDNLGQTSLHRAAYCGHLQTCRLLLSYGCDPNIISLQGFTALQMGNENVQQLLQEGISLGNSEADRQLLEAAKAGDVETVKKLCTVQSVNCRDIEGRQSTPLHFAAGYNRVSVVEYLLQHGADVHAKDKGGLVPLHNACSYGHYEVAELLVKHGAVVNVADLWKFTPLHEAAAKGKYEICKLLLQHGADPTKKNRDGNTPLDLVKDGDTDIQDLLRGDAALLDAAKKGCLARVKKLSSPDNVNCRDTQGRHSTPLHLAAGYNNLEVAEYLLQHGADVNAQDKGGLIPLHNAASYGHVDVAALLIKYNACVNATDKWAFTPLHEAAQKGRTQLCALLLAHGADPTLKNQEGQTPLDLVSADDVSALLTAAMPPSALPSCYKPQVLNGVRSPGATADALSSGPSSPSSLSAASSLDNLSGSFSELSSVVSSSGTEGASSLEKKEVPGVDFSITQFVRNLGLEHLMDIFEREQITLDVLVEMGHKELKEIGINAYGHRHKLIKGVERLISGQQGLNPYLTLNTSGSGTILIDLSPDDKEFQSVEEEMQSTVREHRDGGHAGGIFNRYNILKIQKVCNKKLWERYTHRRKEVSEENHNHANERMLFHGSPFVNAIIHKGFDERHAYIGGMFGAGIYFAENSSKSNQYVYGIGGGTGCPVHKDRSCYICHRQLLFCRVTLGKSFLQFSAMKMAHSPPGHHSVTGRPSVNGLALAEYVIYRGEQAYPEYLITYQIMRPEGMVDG
Method: as §1

| SMILES | telomere length (HeLa cells) | fin regeneration after chemically induced blockade (zebrafish) | binding pocket engaged in Tnks1 [1] | inhibition at 10 µM (TNKS1) [%] | inhibition at 10 µM (TNKS2) [%] |
| --- | --- | --- | --- | --- | --- |
| O=C(Nc1cccc2cccnc12)c1ccc(N2C(=O)[C@@H]3[C@H](C2=O)[C@@H]2C=C[C@H]3C2)cc1 [IWR-1] | induced shortened telomere length in a dose-dependent manner | able to regenerate tissue to nearly normal levels after chemical removal |  |  |  |
| CCN(C(=O)C1CCN(S(=O)(=O)c2cc3c(cc2Br)CCN3C(C)=O)CC1)c1cccc(C)c1 [IWR-8] | induced shortened telomere length in a dose-dependent manner |  | engage the AD pocket | 99 | 99 |

Reference: patent US10420758B2, “Indolinyl-sulfonamide inhibitors of tankyrase and methods of use thereof” (The Board of Regents of the University of Texas System, priority 2015, dated 2019)
